In PubChem BioAssay (NCI):
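1) Cells in 96-well plates. 2) Compound, 48 h, 5 concentrations. 3) Linear interpolation between surrounding doses. 4) Unreached endpoint = highest concentration. TGI denotes the concentration required for complete inhibition of growth.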

Assays:
Assay in all cases: NCI anticancer screen, dose series, 48 h
[1] = system: SK-MEL-2 melanoma
[2] = system: HS 578T breast
[3] = system: SF-295 CNS
[4] = system: PC-3 prostate
[5] = system: SN12C renal
[6] = system: OVCAR-5 ovarian
[7] = system: TK-10 renal
[8] = system: CCRF-CEM leukemia
[9] = system: COLO 205 colon
[10] = system: U251 CNS
[11] = system: MOLT-4 leukemia
[12] = system: 786-0 renal
[13] = system: CAKI-1 renal
[14] = system: SNB-75 CNS
[15] = system: HOP-92 NSCLC
[16] = system: MCF7 breast
[17] = system: SK-MEL-5 melanoma
[18] = system: NCI/ADR-RES ovarian
[19] = system: SR leukemia
[20] = system: MDA-MB-435
[21] = system: RXF 393 renal
[22] = system: OVCAR-3 ovarian
[23] = system: HCC-2998 colon
[24] = system: HCT-15 colon
[25] = system: UO-31 renal
[26] = system: NCI-H460 lung
[27] = system: HCT-116 colon
[28] = system: ACHN renal
[29] = system: UACC-257 melanoma
[30] = system: A549 NSCLC
[31] = system: MDA-MB-231 breast
[32] = system: BT-549 breast
[33] = system: SK-OV-3 ovarian
[34] = system: EKVX NSCLC
[35] = system: MDA-N
[36] = system: HT29 colon
[37] = system: DU-145 prostate
[38] = system: RPMI-8226 leukemia
[39] = system: SF-268 CNS
[40] = system: K-562 leukemia
[41] = system: OVCAR-4 ovarian
[42] = system: SW-620 colon
[43] = system: SNB-19 CNS
[44] = system: LOX IMVI melanoma
[45] = system: HOP-62 NSCLC
[46] = system: OVCAR-8 ovarian
[47] = system: UACC-62 melanoma
[48] = system: IGROV1 ovarian
[49] = system: SK-MEL-28 melanoma
[50] = system: NCI-H23 lung
[51] = system: NCI-H226 lung
[52] = system: SF-539 CNS
[53] = system: A498 renal
[54] = system: NCI-H522 lung
[55] = system: M14 melanoma
[56] = system: KM12 colon
[57] = system: HL-60(TB) leukemia
[58] = system: MALME-3M melanoma
[59] = system: T-47D breast

In the case of `COC(=O)Cc1c([C@@H]2Nc3ccccc3[C@H]2CC(=O)OC)[nH]c2ccccc12`, the TGI [1] is reported as 34.8 µM, the TGI [2] is reported as over 100 µM and the TGI [3] is reported as over 100 µM. It also gave a TGI [4] of over 100 µM, a TGI [5] of over 100 µM and a TGI [6] of over 100 µM. The TGI [7] was over 100 µM, the TGI [8] was over 100 µM and the TGI [9] was 34.8 µM. The TGI [10] was over 100 µM, the TGI [11] was 68.9 µM and the TGI [12] was over 100 µM. It also gave a TGI [13] of over 100 µM, a TGI [14] of over 100 µM and a TGI [15] of over 100 µM. It also gave a TGI [16] of over 100 µM, a TGI [17] of 21 µM and a TGI [18] of over 100 µM. It also gave a TGI [19] of 71.4 µM, a TGI [20] of 84.8 µM and a TGI [21] of over 100 µM. For the same compound, the TGI [22] was 42.8 µM, the TGI [23] was over 100 µM and the TGI [24] was over 100 µM. The TGI [25] was 81.6 µM, the TGI [26] was 65.5 µM and the TGI [27] was over 100 µM. It also gave a TGI [28] of over 100 µM, a TGI [29] of 81.6 µM and a TGI [30] of over 100 µM. The TGI [31] was 88.9 µM, the TGI [32] was 75 µM and the TGI [33] was over 100 µM. The TGI [34] was over 100 µM, the TGI [35] was over 100 µM and the TGI [36] was over 100 µM. It also gave a TGI [37] of over 100 µM, a TGI [38] of 49.4 µM and a TGI [39] of over 100 µM. It also gave a TGI [40] of 77.7 µM, a TGI [41] of over 100 µM and a TGI [42] of over 100 µM. For the same compound, the TGI [43] was over 100 µM, the TGI [44] was over 100 µM and the TGI [45] was over 100 µM. The TGI [46] was over 100 µM, the TGI [47] was 34.3 µM and the TGI [48] was over 100 µM. For the same compound, the TGI [49] was over 100 µM, the TGI [50] was over 100 µM and the TGI [51] was over 100 µM. The TGI [52] was 67.5 µM and the TGI [53] was over 100 µM.
For `O=c1c2cc([N+](=O)[O-])ccc2n2n1Cc1ccccc1CC2`, the TGI [1] was over 100 µM, the TGI [2] was over 100 µM and the TGI [3] was over 100 µM. For the same compound, the TGI [4] was over 100 µM, the TGI [5] was over 100 µM and the TGI [6] was over 100 µM. The TGI [54] was over 100 µM, the TGI [7] was over 100 µM and the TGI [8] was over 100 µM. The TGI [9] was over 100 µM, the TGI [10] was over 100 µM and the TGI [11] was over 100 µM. It also gave a TGI [12] of over 100 µM, a TGI [13] of over 100 µM and a TGI [55] of over 100 µM. It also gave a TGI [16] of over 100 µM, a TGI [56] of over 100 µM and a TGI [17] of over 100 µM. The TGI [18] was over 100 µM, the TGI [19] was over 100 µM and the TGI [20] was over 100 µM. It also gave a TGI [21] of over 100 µM, a TGI [22] of over 100 µM and a TGI [23] of over 100 µM. The TGI [24] was over 100 µM, the TGI [25] was over 100 µM and the TGI [26] was over 100 µM. The TGI [27] was over 100 µM, the TGI [28] was over 100 µM and the TGI [29] was over 100 µM. It also gave a TGI [30] of over 100 µM, a TGI [31] of over 100 µM and a TGI [32] of over 100 µM. The TGI [33] was over 100 µM, the TGI [34] was 52.5 µM and the TGI [35] was over 100 µM. The TGI [36] was over 100 µM, the TGI [37] was over 100 µM and the TGI [38] was over 100 µM. For the same compound, the TGI [39] was over 100 µM, the TGI [40] was over 100 µM and the TGI [41] was over 100 µM. The TGI [57] was over 100 µM, the TGI [42] was over 100 µM and the TGI [43] was over 100 µM. It also gave a TGI [44] of over 100 µM, a TGI [45] of over 100 µM and a TGI [46] of over 100 µM. The TGI [58] was over 100 µM, the TGI [47] was over 100 µM and the TGI [48] was over 100 µM. It also gave a TGI [49] of over 100 µM, a TGI [50] of over 100 µM and a TGI [51] of over 100 µM. It also gave a TGI [52] of over 100 µM and a TGI [53] of over 100 µM.
`CC(C)C1CN1CC(O)Cn1ccnc1[N+](=O)[O-]` (configuration not stated) showed a TGI [1] of over 100 µM, a TGI [2] of over 100 µM and a TGI [3] of over 100 µM. The TGI [4] was over 100 µM, the TGI [5] was over 100 µM and the TGI [6] was over 100 µM. It also gave a TGI [54] of over 100 µM, a TGI [7] of over 100 µM and a TGI [8] of over 100 µM. The TGI [9] was over 100 µM, the TGI [10] was over 100 µM and the TGI [11] was over 100 µM. For the same compound, the TGI [12] was over 100 µM, the TGI [13] was over 100 µM and the TGI [14] was over 100 µM. The TGI [55] was over 100 µM, the TGI [16] was over 100 µM and the TGI [56] was over 100 µM. It also gave a TGI [17] of over 100 µM, a TGI [18] of over 100 µM and a TGI [22] of over 100 µM. For the same compound, the TGI [23] was over 100 µM, the TGI [24] was over 100 µM and the TGI [25] was over 100 µM. It also gave a TGI [26] of over 100 µM, a TGI [27] of over 100 µM and a TGI [28] of over 100 µM. It also gave a TGI [29] of over 100 µM, a TGI [30] of over 100 µM and a TGI [31] of over 100 µM. For the same compound, the TGI [32] was over 100 µM, the TGI [33] was over 100 µM and the TGI [34] was over 100 µM. For the same compound, the TGI [35] was over 100 µM, the TGI [36] was over 100 µM and the TGI [37] was over 100 µM. For the same compound, the TGI [39] was over 100 µM, the TGI [40] was over 100 µM and the TGI [41] was over 100 µM. The TGI [42] was over 100 µM, the TGI [43] was over 100 µM and the TGI [45] was over 100 µM. The TGI [46] was over 100 µM, the TGI [58] was over 100 µM and the TGI [59] was over 100 µM. It also gave a TGI [47] of over 100 µM, a TGI [48] of over 100 µM and a TGI [49] of over 100 µM. The TGI [50] was over 100 µM, the TGI [51] was over 100 µM and the TGI [52] was over 100 µM. The TGI [53] was over 100 µM.
`CC1C(c2ccc(N(C)C)cc2)c2cc3c(cc2OC1N1CCCC1)OCO3` (configuration not stated) was tested, and the TGI [1] was over 82.6 µM, the TGI [2] was 78 µM and the TGI [3] was over 94.8 µM. It also gave a TGI [4] of over 100 µM, a TGI [5] of over 100 µM and a TGI [6] of over 100 µM. The TGI [54] was over 82 µM, the TGI [7] was over 100 µM and the TGI [8] was over 100 µM. For the same compound, the TGI [9] was over 100 µM, the TGI [10] was over 100 µM and the TGI [11] was over 100 µM. It also gave a TGI [12] of over 100 µM, a TGI [13] of over 100 µM and a TGI [14] of over 73 µM. It also gave a TGI [55] of over 100 µM, a TGI [15] of over 100 µM and a TGI [16] of over 31.6 µM. It also gave a TGI [56] of over 100 µM, a TGI [17] of over 100 µM and a TGI [18] of over 94.1 µM. For the same compound, the TGI [19] was over 100 µM, the TGI [20] was 60.4 µM and the TGI [21] was over 100 µM. It also gave a TGI [22] of over 100 µM, a TGI [23] of over 100 µM and a TGI [24] of over 100 µM. For the same compound, the TGI [25] was over 100 µM, the TGI [26] was over 95.3 µM and the TGI [27] was over 100 µM. The TGI [28] was over 100 µM, the TGI [29] was over 100 µM and the TGI [30] was over 100 µM. The TGI [32] was over 100 µM, the TGI [34] was over 100 µM and the TGI [35] was 46.9 µM. The TGI [36] was over 81.9 µM, the TGI [37] was over 100 µM and the TGI [38] was 97.5 µM. For the same compound, the TGI [39] was over 100 µM, the TGI [40] was 97.3 µM and the TGI [41] was over 100 µM. The TGI [57] was 73.6 µM, the TGI [42] was over 100 µM and the TGI [43] was over 100 µM. For the same compound, the TGI [44] was over 100 µM, the TGI [45] was over 78.6 µM and the TGI [46] was over 100 µM. It also gave a TGI [58] of over 100 µM, a TGI [59] of over 100 µM and a TGI [47] of over 100 µM. For the same compound, the TGI [48] was over 100 µM, the TGI [49] was over 100 µM and the TGI [50] was over 100 µM. The TGI [52] was 60.2 µM and the TGI [53] was 72.3 µM.
